Patent publication US20210127673A1, “HERBICIDES” (SYNGENTA PARTICIPATIONS AG, priority 2016, published 2021)

How the values were obtained:
Format in all cases: in vivo
Details in all cases: evaluated after 13 days
Lolium perenne (LOLPE) [1] = test: Post-emergence herbicidal activity, Lolium perenne; design: key: 5=total damage to plant; 0=no damage to plant
Summary of the method: (§1)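 Scores (0 no damage to 5 total damage) read 13 d after spraying. Plants sprayed post-emergence 8 d after sowing; spray solution acetone/water 50:50 with 0.5% Tween 20. Growth at 24/16 °C day/night, 14 h light, 65% RH, twice-daily watering.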

[2] = test system: Echinochloa crus-galli (ECHCG); test: Pre-emergence herbicidal activity, Echinochloa crus-galli; design: key: 5=total damage to plant; 0=no damage to plant
Summary of the method: (§2)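 Damage rated on a 0 (none) to 5 (total) scale 13 days after treatment. Spray was an aqueous solution from an acetone/water (50:50) formulation with 0.5% Tween 20, applied pre-emergence one day post-sowing; plants kept in a glasshouse at 24/16 °C, 14 h light, 65% humidity.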

Setaria faberi (SETFA) [3] = test: Pre-emergence herbicidal activity, Setaria faberi; design: key: 5=total damage to plant; 0=no damage to plant
Summary of the method: as §2

[4] = test system: Triticum aestivium (TRZAW); test: Pre-emergence herbicidal activity, Triticum aestivium; design: key: 5=total damage to plant; 0=no damage to plant
Summary of the method: as §2

[5] = test system: Triticum aestivium (TRZAW); test: Post-emergence herbicidal activity, Triticum aestivium; design: key: 5=total damage to plant; 0=no damage to plant
Summary of the method: as §1

Lolium perenne (LOLPE) [6] = test: Pre-emergence herbicidal activity, Lolium perenne; design: key: 5=total damage to plant; 0=no damage to plant
Summary of the method: as §2

Avena fatua (AVEFA) [7] = test: Pre-emergence herbicidal activity, Avena fatua; design: key: 5=total damage to plant; 0=no damage to plant
Summary of the method: as §2

[8] = test system: Alopecurus myosuroides (ALOMY); test: Pre-emergence herbicidal activity, Alopecurus myosuroides; design: key: 5=total damage to plant; 0=no damage to plant
Summary of the method: as §2

[9] = test system: Echinochloa crus-galli (ECHCG); test: Post-emergence herbicidal activity, Echinochloa crus-galli; design: key: 5=total damage to plant; 0=no damage to plant
Summary of the method: as §1

[10] = test system: Alopecurus myosuroides (ALOMY); test: Post-emergence herbicidal activity, Alopecurus myosuroides; design: key: 5=total damage to plant; 0=no damage to plant
Summary of the method: as §1

Avena fatua (AVEFA) [11] = test: Post-emergence herbicidal activity, Avena fatua
Summary of the method: as §1

Setaria faberi (SETFA) [12] = test: Post-emergence herbicidal activity, Setaria faberi; design: key: 5=total damage to plant; 0=no damage to plant
Summary of the method: as §1

Row | Structure (SMILES) | Control of LOLPE after post-emergence application (score 0-5) (Lolium perenne (LOLPE) [1]; 250 g/ha) | Control of ECHCG after pre-emergence application (score 0-5) ([2]; 250 g/ha) | Control of SETFA after pre-emergence application (score 0-5) (Setaria faberi (SETFA) [3]; 250 g/ha) | Control of TRAZW after pre-emergence application (score 0-5) ([4]; 250 g/ha) | Control of TRAZW after post-emergence application (score 0-5) ([5]; 250 g/ha) | Control of LOLPE after pre-emergence application (score 0-5) (Lolium perenne (LOLPE) [6]; 250 g/ha) | Control of AVEFA after pre-emergence application (score 0-5) (Avena fatua (AVEFA) [7]; 250 g/ha) | Control of ALOMY after pre-emergence application (score 0-5) ([8]; 250 g/ha) | Control of LOLPE after post-emergence application (score 0-5) (Lolium perenne (LOLPE) [1]; 1000 g/ha) | Control of ECHCG after pre-emergence application (score 0-5) ([2]; 1000 g/ha) | Control of SETFA after pre-emergence application (score 0-5) (Setaria faberi (SETFA) [3]; 1000 g/ha) | Control of TRAZW after pre-emergence application (score 0-5) ([4]; 1000 g/ha) | Control of TRAZW after post-emergence application (score 0-5) ([5]; 1000 g/ha) | Control of LOLPE after pre-emergence application (score 0-5) (Lolium perenne (LOLPE) [6]; 1000 g/ha) | Control of AVEFA after pre-emergence application (score 0-5) (Avena fatua (AVEFA) [7]; 1000 g/ha) | Control of ALOMY after pre-emergence application (score 0-5) ([8]; 1000 g/ha) | Control of ECHCG after post-emergence application (score 0-5) ([9]; 1000 g/ha) | Control of ALOMY after post-emergence application (score 0-5) ([10]; 1000 g/ha) | Control of AVEFA after post-emergence application (score 0-5) (Avena fatua (AVEFA) [11]; 1000 g/ha) | Control of SETFA after post-emergence application (score 0-5) (Setaria faberi (SETFA) [12]; 1000 g/ha) | other results
1 | CSCCCNC(=O)Nc1ccc(-c2cncc(F)c2)nc1C(F)(F)F [Compound B98] | 0 | 1 | 4 | 0 | 0 | 1 | 1 | 0 |  |  |  |  |  |  |  |  |  |  |  |  | Control of ECHCG after post-emergence application (score 0-5) ([9]; 250 g/ha): 2; Control of ALOMY after post-emergence application (score 0-5) ([10]; 250 g/ha): 0; Control of AVEFA after post-emergence application (score 0-5) (Avena fatua (AVEFA) [11]; 250 g/ha): 3; Control of SETFA after post-emergence application (score 0-5) (Setaria faberi (SETFA) [12]; 250 g/ha): 5
2 | C#CC(C)(C)NC(=O)Nc1ccc(-c2cncc(F)c2)nc1C(F)(F)F [Compound B102] |  |  |  |  |  |  |  |  | 3 | 4 | 5 | 0 | 1 | 2 | 3 | 0 | 5 | 1 | 4 | 5 | 
3 | O=C(NCC1CC1)Nc1ccc(-c2cncc(F)c2)nc1C(F)(F)F [Compound B104] | 1 | 2 | 5 | 0 | 0 | 1 | 0 | 0 |  |  |  |  |  |  |  |  |  |  |  |  | Control of ECHCG after post-emergence application (score 0-5) ([9]; 250 g/ha): 3; Control of ALOMY after post-emergence application (score 0-5) ([10]; 250 g/ha): 1; Control of AVEFA after post-emergence application (score 0-5) (Avena fatua (AVEFA) [11]; 250 g/ha): 3; Control of SETFA after post-emergence application (score 0-5) (Setaria faberi (SETFA) [12]; 250 g/ha): 5
4 | O=C(Nc1ccc(-c2cncc(F)c2)nc1C(F)(F)F)OCc1ccc(Cl)cc1 [Compound B105] |  |  |  |  |  |  |  |  | 1 | 2 | 5 | 0 | 0 | 1 | 1 | 0 | 4 | 0 | 3 | 5 | 
5 | CCCCNC(=O)Nc1ccc(-c2cncc(F)c2)nc1C(F)(F)F [Compound B106] | 1 | 1 | 5 | 0 | 0 | 1 | 1 | 0 |  |  |  |  |  |  |  |  |  |  |  |  | Control of ECHCG after post-emergence application (score 0-5) ([9]; 250 g/ha): 3; Control of ALOMY after post-emergence application (score 0-5) ([10]; 250 g/ha): 0; Control of AVEFA after post-emergence application (score 0-5) (Avena fatua (AVEFA) [11]; 250 g/ha): 3; Control of SETFA after post-emergence application (score 0-5) (Setaria faberi (SETFA) [12]; 250 g/ha): 5
6 | CC(C)(C)CNC(=O)Nc1ccc(-c2cncc(F)c2)nc1C(F)(F)F [Compound B107] | 1 | 3 | 4 | 1 | 0 | 3 | 1 | 1 |  |  |  |  |  |  |  |  |  |  |  |  | Control of ECHCG after post-emergence application (score 0-5) ([9]; 250 g/ha): 3; Control of ALOMY after post-emergence application (score 0-5) ([10]; 250 g/ha): 0; Control of AVEFA after post-emergence application (score 0-5) (Avena fatua (AVEFA) [11]; 250 g/ha): 3; Control of SETFA after post-emergence application (score 0-5) (Setaria faberi (SETFA) [12]; 250 g/ha): 5
7 | O=C(Nc1ccc(-c2cncc(F)c2)nc1C(F)(F)F)OC1CCCCC1 [Compound B108] |  |  |  |  |  |  |  |  | 1 | 3 | 5 | 0 | 0 | 2 | 2 | 0 | 0 | 0 | 3 | 5 | 
8 | COc1nc(-c2cncc(F)c2)ccc1N(C(=O)OC(C)(C)C)C(=O)OC(C)(C)C [Compound B109] |  |  |  |  |  |  |  |  | 0 | 0 | 3 | 0 | 0 | 0 | 1 | 0 | 1 | 0 | 1 | 1 | 
9 | O=C(NOCC(F)F)Nc1ccc(-c2cncc(F)c2)nc1C(F)(F)F [Compound B110] |  |  |  |  |  |  |  |  | 1 | 3 | 4 | 0 | 0 | 0 | 0 | 0 | 3 | 0 | 3 | 4 | 
10 | CON(C)C(=O)Nc1ccc(-c2cncc(F)c2)nc1C(F)(F)F [Compound B111] |  |  |  |  |  |  |  |  | 1 | 3 | 3 | 0 | 0 | 0 | 2 | 0 | 3 | 0 | 2 | 4 | 
11 | CC(C)(C)OC(=O)Nc1ccc(-c2cncc(F)c2)nc1-c1ccccc1 [Compound B112, tert-butyl N-[6-(5-fluoro-3-pyridyl)-2-phenyl-3-pyridyl]carbamate] |  |  |  |  |  |  |  |  | 0 | 3 | 4 | 0 | 0 | 0 | 0 | 0 | 1 | 0 | 1 | 3 | 
12 | CC(C)(C)OC(=O)N(C(=O)OC(C)(C)C)c1ccc(-c2cncc(F)c2)nc1C(F)(F)F [Compound B113] |  |  |  |  |  |  |  |  | 3 | 5 | 5 | 0 | 2 | 1 | 3 | 1 | 5 | 1 | 4 | 5 | 
